PubChem BioAssay (NCI)
Several values for one entry are separate records, joined by “and”; a condition that tells them apart may be missing. Equal values may be shown once.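 All cell lines were grown in 96-well plates and treated with compound for 48 hours. At the GI50, growth is halved. TGI: concentration producing complete growth inhibition.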

Columns and labels:
Assay in all cases: growth of human tumour cells (NCI), 48 h
[1] = system: EKVX NSCLC
[2] = system: HCT-116 colon
[3] = system: HOP-62 NSCLC
[4] = system: MOLT-4 leukemia
[5] = system: NCI-H226 lung
[6] = system: OVCAR-4 ovarian
[7] = system: OVCAR-5 ovarian
[8] = system: SF-539 CNS
[9] = system: SK-OV-3 ovarian
[10] = system: SNB-75 CNS

| Compound | GI50 [1] | TGI [1] | GI50 [2] | TGI [2] | GI50 [3] | TGI [3] | GI50 [4] | TGI [4] | TGI [5] | GI50 [6] | TGI [6] | GI50 [7] | TGI [7] | GI50 [8] | TGI [8] | GI50 [9] | TGI [9] | GI50 [10] | TGI [10] | GI50 [5] |
| --- | --- | --- | --- | --- | --- | --- | --- | --- | --- | --- | --- | --- | --- | --- | --- | --- | --- | --- | --- | --- |
| CC[C@@H]1C(=O)N(C)c2cnc(Nc3ccc(C(=O)NC4CCC(N5CCN(CC6CC6)CC5)CC4)cc3OC)nc2N1C(C)C (stereo partly drawn) | 0.0749 µM and 0.234 µM | > 10 µM and 21.6 µM | 0.0136 µM and 0.022 µM | > 3.83 µM and 1.68 µM | 20.8 nM and 34 nM | > 8.64 µM and 3.93 µM | 0.0116 µM and 0.019 µM | > 5.38 µM and 1.28 µM | > 10 µM | 890 nM and 466 nM | > 10 µM and 19 µM | 0.0146 µM and 0.0502 µM | > 10 µM and 16.9 µM | 40.9 nM and 37.2 nM | 1.36 µM and 1.48 µM | 0.046 µM and 0.0354 µM | 1.37 µM and 0.904 µM | 29.6 nM and 34.4 nM | 6.73 µM |  |
| O=C(O)C1CCCN1 (stereo not drawn) |  | > 100 µM |  | > 100 µM |  | > 100 µM |  | > 100 µM | > 100 µM |  | > 100 µM |  | > 100 µM |  | > 100 µM |  | > 100 µM |  | > 100 µM |  |
| C=CC(=O)N1CCN([C@@H](CC2CC2)c2ccc([C@H](C)Nc3ncc4c(n3)N(CC)C(=O)OC4)cc2)CC1 | 14.1 µM | 27.6 µM | 7.67 µM | 21.9 µM | 12400 nM | 32.9 µM | 4.51 µM | 26.4 µM | 34.7 µM | 12300 nM | 28.4 µM | 16.6 µM | 35.4 µM | 11700 nM | 24.3 µM | 14.5 µM | 30.2 µM | 2060 nM | 16.7 µM | 14.1 µM |
| CCOc1ccc2nc3cc(N)ccc3c(N)c2c1 | 9.76 µM and 7.63 µM | 36.7 µM and 41.4 µM | 3.62 µM and 3.63 µM | 15.4 µM and 14.2 µM | 1490 nM and 1580 nM | 6.84 µM and 6.49 µM | 2.99 µM and 3.26 µM | 12.2 µM and 12.4 µM | 24.2 µM and 13.4 µM | 2300 nM and 3380 nM | 5.45 µM and 13 µM | 16.2 µM and 12.8 µM | 39 µM and 25.6 µM | 2660 nM and 1790 nM | 13.6 µM and 6.38 µM | 2.67 µM and 3.65 µM | 14.2 µM and 15.6 µM | 2860 nM and 14100 nM | 8.78 µM and 28.4 µM | 6.49 µM and 2.55 µM |
| O=C(O)c1ccccc1NS(=O)(=O)c1ccc(Cl)cc1 |  | > 100 µM |  | > 100 µM |  | > 100 µM |  | > 100 µM | > 100 µM |  | > 100 µM |  | > 100 µM |  | > 100 µM |  | > 100 µM |  | > 100 µM |  |
| CN(N=O)C(=O)NC(CCCCNC(=O)OCc1ccccc1)C(=O)OCc1ccccc1 (stereo not drawn) |  | > 100 µM |  | > 100 µM |  | 79.6 µM |  | 64.9 µM | > 100 µM |  | > 100 µM |  | > 100 µM |  | 32.7 µM |  | > 100 µM |  | 36 µM |  |
| O=C(O)CN(CCN(CC(=O)O)CC(=O)O)CCN(CC(=O)O)CC(=O)O | 3.26 µM | 9.91 µM | 3.42 µM | 12.7 µM | 1980 nM | 5.07 µM | 2.57 µM | 8.26 µM | 16.5 µM | 2510 nM | 7.51 µM | 4.01 µM | 20 µM | 2860 nM | 7.98 µM | 3.19 µM | 8.62 µM | 1990 nM | 7.86 µM | 4.65 µM |
| Cc1cccc(-c2nc(=S)[nH][nH]2)c1 |  | > 100 µM |  | > 100 µM |  | > 100 µM |  | > 100 µM | > 100 µM |  | > 100 µM |  | > 100 µM |  | > 100 µM |  | > 100 µM |  | > 100 µM |  |
| CC(=O)Nc1ccc(CC[C@H]2CCC/C=C/[C@@H]3C[C@H](O)C[C@H]3[C@H](O)/C=C/C(=O)O2)cc1 | 0.191 µM | 4.33 µM | 0.184 µM | 0.389 µM | 281 nM |  | 0.345 µM | 2.82 µM | 0.295 µM | 105 nM |  | 0.346 µM | > 66.4 µM | 423 nM | > 100 µM | 0.0667 µM | > 100 µM | 44.6 nM | > 94.7 µM | 0.0667 µM |
| COc1ccc2c(c1[N+](=O)[O-])CC[C@@H]1[C@@H]2CC[C@]2(C)C(=O)CC[C@@H]12 | > 580 µM | > 1000 µM | > 1000 µM |  | 322000 nM | > 6.71 µM and 639 µM | > 1000 µM | > 1000 µM |  | 228000 nM |  | > 1000 µM | > 1000 µM | 300000 nM | > 890 µM | 413 µM |  | 142000 nM | > 25 µM and 345 µM | 494 µM |
| CCCCCCCCCCCC1=NC(C)(C)CN1C(C)C | 6.55 µM | 21.1 µM | 2.83 µM | 10.4 µM | 4350 nM | 16.2 µM | 2.67 µM | 7.44 µM | 22 µM | 4290 nM | 15.9 µM | 4.14 µM | 16.1 µM | 2140 nM | 4.41 µM | 7.51 µM | 20 µM | 6040 nM | 19.2 µM | 6.16 µM |
| Clc1ccc2c(NCCCCNc3nc(N4CCOCC4)nc4ccccc34)ccnc2c1 | 3.7 µM | 15.3 µM | 2.13 µM | 4.63 µM | 2170 nM | 5.67 µM | 3.59 µM | 14 µM | 3.68 µM | 2200 nM | 5.52 µM | 3.36 µM | 12 µM | 1800 nM | 3.39 µM | 3.03 µM | 9.97 µM | 1330 nM | 3.03 µM | 1.72 µM |
| CC(C)(C)CNCCO |  | > 100 µM |  | > 100 µM |  | > 100 µM |  | > 45.7 µM | > 100 µM |  | > 100 µM |  | > 100 µM |  | > 100 µM |  | > 100 µM |  | > 100 µM |  |
| O=C(Nc1ccccc1/C=C/c1n[nH]c2ccccc12)c1ccccc1 | 1.34 µM | 8.91 µM | 2.28 µM | 10.5 µM | 2150 nM | 6.13 µM | 7.27 µM | 38.2 µM | 11.5 µM | 9460 nM | 24.7 µM | 1.92 µM | 12.9 µM | 4260 nM | 14.1 µM | 10.9 µM | 22.8 µM | 9040 nM | 23.9 µM | 1.09 µM |
| CC(C)CC(NC(=O)C(O)C(N)Cc1ccccc1)C(=O)O (stereo not drawn) |  | > 100 µM |  | > 100 µM |  | > 100 µM |  | > 100 µM | > 100 µM |  | > 100 µM |  | > 100 µM |  | > 100 µM |  | > 100 µM |  | > 100 µM |  |
